Assay results taken from patent US20220290200A1, “GENETICALLY MODIFIED HOST CELLS PRODUCING GLYCOSYLATED CANNABINOIDS” (OCTARINE BIO IVS, priority 2019, published 2022).
Like-named read-outs stand apart in the source and are kept apart here.

Experiments:
[1] = Caco-2 bi-directional permeability assay; format: in vitro ADME, human; settings: human
Method: (§1) Intestinal permeability of cannabinoids and glycosylated cannabinoids was determined by measuring bi-directional transport across Caco-2 cell membranes. Caco-2 cells are used as an in vitro model of the human intestinal epithelium and permit assessment of the intestinal permeability of potential drugs. The test compound is added to either the apical or basolateral side of a confluent monolayer of Caco-2 cells and permeability is measured by monitoring the appearance of the test compound on the opposite side of the monolayer using LC-MS/QTOF. When performing a bi-directional assay, the efflux ratio (ER) is calculated from the ratio of B−A and A−B permeabilities. Caco-2 cells obtained from the ATCC are used between passage numbers 40-60. Cells are seeded onto Millipore Multiscreen Transwell plates at 1×10^5 cells/cm2. The cells are cultured in DMEM and media is changed every two or three days. On day 20 the permeability study is performed. Cell culture and assay incubations are carried out at 37° C. in an atmosphere of 5% CO2 with a relative humidity of 95%. On the day of the assay, the monolayers are prepared by rinsing both apical and basolateral surfaces twice with Hanks Balanced Salt Solution (HBSS) at the desired pH warmed to 37° C. Cells are then incubated with HBSS at the desired pH in both apical and basolateral compartments for 40 min to stabilize physiological parameters. 10 mM solutions of cannabinoids and cannabinoid glycosides are prepared in DMSO then diluted with assay buffer to give a final test compound concentration of 10 μM (final DMSO concentration of 1% v/v). The fluorescent integrity marker lucifer yellow is also included in the solution.
(§2) Analytical standards are prepared from test compound DMSO dilutions and transferred to buffer, maintaining a 1% v/v DMSO concentration. For assessment of A−B permeability, HBSS is removed from the apical compartment and replaced with test compound solution. The apical compartment insert is then placed into a companion plate containing fresh buffer (containing 1% v/v DMSO). For assessment of B−A permeability, HBSS is removed from the companion plate and replaced with test compound solution. Fresh buffer (containing 1% v/v DMSO) is added to the apical compartment insert, which is then placed into the companion plate. At 120 min the apical compartment inserts and the companion plates are separated and apical and basolateral samples diluted for analysis. Test compound permeability is assessed in duplicate. Compounds of known permeability characteristics are run as controls on each assay plate. Test and control compounds are quantified by LC-MS/QTOF as described above. The starting concentration (C0) is determined from the solution and the experimental recovery calculated from C0 and both apical and basolateral compartment concentrations. The integrity of the monolayer throughout the experiment is checked by monitoring lucifer yellow permeation using fluorometric analysis. The permeability coefficient (Papp) for each compound is calculated from the following equation: Papp=(dQ/dt)/(C0×A) Where dQ/dt is the rate of permeation of the drug across the cells, C0 is the donor compartment concentration at time zero and A is the area of the cell monolayer. C0 is obtained from analysis of the dosing solution. The efflux ratio (ER) is calculated from mean Papp values from A−B and B−A data. This is derived from: ER=Papp(B−A)/Papp(A−B). The % recovery is calculated from the following equation; % recovery=(Total compound in donor and receiver compartment at end of experiment)/(initial compound present)×100.
(§3) CBD glycosides were produced using glycosyl transferases and purified as described above. […] Low recovery of compound in a Caco-2 permeability assay can indicate problems with poor solubility, binding of the compound to the plate, metabolism by the Caco-2 cells or accumulation of the compound in the cell monolayer.

Caco-2 cells = experiment: Caco-2 bi-directional permeability assay; format: in vitro ADME, human; settings: for efflux ratio compared to CBD / permeability coefficient (Papp) A to B and B to A compared to unmodified CBD: Caco-2, 10 μM; for efflux ratio compared to CBD / permeability coefficient (Papp) A to B and B to A compared to unmodified CBD / Mean recovery (%), Direction A→B / Mean Papp, Direction A→B / Mean recovery (%), Direction B→A / Mean Papp, Direction B→A: 120 min; for % recovery compared to CBD: Caco-2, both compartments; for Mean recovery (%), Direction A→B / Mean Papp, Direction A→B: apical to basolateral; for Mean Papp, Direction A→B / Mean Papp, Direction B→A: mean and standard deviation of duplicates; for Mean recovery (%), Direction B→A / Mean Papp, Direction B→A: basolateral to apical; for Efflux ratio: ratio of B−A and A−B permeabilities
Method: as §1, §2, §3

[2] = In vitro enzymatic cascade converting sucrose and CBD to CBD glycosides; format: biochemical; settings: enzymes added: GmSuSy, Cs73Y
Source text: In the previous examples, in vitro glycosyl transferase assays required the addition of an “activated” sugar (e.g. UDP-glucose), which is typically an extremely expensive reagent, furthermore, other activated sugars e.g. UDP-rhamnose are not available commercially and must be custom synthesized at high-cost and difficulty. […] To facilitate the low-cost production of cannabinoid glycosides not only with glucose, but with alternative sugars, an enzymatic cascade was set up to convert cannabinoids and the simple sugar sucrose into various cannabinoid glycosides. The cascade is divided into 3 steps, in step 1 sucrose and uridine diphosphate (UDP) is converted to UDP-glucose by GmSuSy (SEQ ID NO: 209, 210), additionally generating fructose as a bi-product. In step 2, UDP-glucose is interconverted to alternative UDP-sugars using a range of enzymes. For example, conversion of UDP-glucose to UDP-galactose by BsGa/E, multiple enzymes can also be used to produce UDP-sugars via other UDP-sugar intermediates. For example, conversion of UDP-glucose to UDP-glucuronic acid by AtUGDH1 combined with conversion of UDP-glucuronic acid to UDP-xylose by AtUXS3. In step 3, glycosyl transferases convert the activated sugar and a cannabinoid acceptor to the corresponding cannabinoid glycoside. For example, conversion of UDP-rhamnose and CBD to CBD-1′-O-β-D-rhamnoside (OB13) by Cs73Y (SEQ ID NO: 157, 158).
Enzymes were purified and the in vitro assay performed as described in Example 13 and the reaction mixture set up as shown in table 57. Enzymes and co-factors were added as required for each individual reaction. Samples were extracted and analyzed as stated above.

| Structure (SMILES) | recovery at 120 min, 10 μM ([1]; Caco-2, apical to basolateral, 120 min, read-out: Mean recovery (%), Direction A→B) [%] | recovery at 120 min, 10 μM ([1]; Caco-2, basolateral to apical, 120 min, read-out: Mean recovery (%), Direction B→A) [%] | Papp A→B at 120 min, 10 μM ([1]; Caco-2, apical to basolateral, 120 min, mean and standard deviation of duplicates, read-out: Mean Papp, Direction A→B) [×10⁻⁶ cm/s] | Papp B→A at 120 min, 10 μM ([1]; Caco-2, basolateral to apical, 120 min, mean and standard deviation of duplicates, read-out: Mean Papp, Direction B→A) [×10⁻⁶ cm/s] | efflux ratio at 120 min, 10 μM ([1]; Caco-2, ratio of B−A and A−B permeabilities) | efflux ratio compared to CBD (Caco-2 cells) | permeability coefficient (Papp) A to B and B to A compared to unmodified CBD (Caco-2 cells) | % recovery compared to CBD (Caco-2 cells) | Mean recovery (%), Direction A→B (Caco-2 cells) [%] | Mean Papp, Direction A→B (Caco-2 cells) | Mean recovery (%), Direction B→A (Caco-2 cells) [%] | Mean Papp, Direction B→A (Caco-2 cells) | Efflux ratio (Caco-2 cells) | % Conversion of CBD and sucrose to CBD glycoside [2] [%] |
| --- | --- | --- | --- | --- | --- | --- | --- | --- | --- | --- | --- | --- | --- | --- |
| C=C(C)[C@@H]1CCC(C)=C[C@H]1c1c(O)cc(CCCCC)cc1O [CBD, cannabidiol, reference compound] | 16.4 | 48.8 | 0.61 ± 0.03 | 1.45 ± 0.64 | 2.37 |  |  |  |  |  |  |  |  |  |
| C=C(C)[C@@H]1CCC(C)=C[C@H]1c1c(O[C@@H]2O[C@H](CO)[C@@H](O)[C@H](O)[C@H]2O)cc(CCCCC)cc1O[C@@H]1O[C@H](CO)[C@@H](O)[C@H](O)[C@H]1O [OB6, CBD-1′-O-β-D-glucosyl-3′-O-β-D-glucoside] |  |  |  |  |  | higher than both CBD and OB1 | permeability coefficients were lower | successively higher rates of recovery | 91.9 | 0.10 ± 0.05 10^−6 cms^−1 | 87.8 | 0.44 ± 0.17 10^−6 cms^−1 | 4.31 | 91.3 |
| C=C(C)[C@@H]1CCC(C)=C[C@H]1c1c(O)cc(CCCCC)cc1O[C@@H]1O[C@H](CO)[C@@H](O)[C@H](O)[C@H]1O [OB1, CBD-1′-O-β-D-glucoside] |  |  |  |  |  | higher efflux ratio | significantly higher permeability coefficients in both directions | successively higher rates of recovery | 69.8 | 10.40 ± 0.31 10^−6 cms^−1 | 79.7 | 35.70 ± 0.34 10^−6 cms^−1 | 3.43 |  |
